Results published in patent publication US20250170141A1, “MRGPRX2 MODULATORS AND RELATED METHODS OF TREATMENT” (Escient Pharmaceuticals, Inc., priority 2023, published 2025).

Biological target: T1, human MRGPRX2 (Homo sapiens, UniProt Q96LB1)
T1 construct: expressed in transfected cells; host or cells: CHO cells, stably transfected (G418 and Hygromycin B selection)
T1 sequence (Q96LB1 1-330): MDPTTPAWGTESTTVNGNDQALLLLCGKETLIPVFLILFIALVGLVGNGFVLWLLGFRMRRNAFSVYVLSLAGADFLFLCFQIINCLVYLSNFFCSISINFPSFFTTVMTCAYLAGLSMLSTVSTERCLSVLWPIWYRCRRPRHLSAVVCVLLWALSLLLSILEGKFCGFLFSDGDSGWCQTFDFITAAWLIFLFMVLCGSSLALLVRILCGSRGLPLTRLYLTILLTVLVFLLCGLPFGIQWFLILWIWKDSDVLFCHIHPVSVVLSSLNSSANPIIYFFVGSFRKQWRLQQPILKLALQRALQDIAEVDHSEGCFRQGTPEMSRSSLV
Assay: MRGPRX2 activity: IP-One Gq HTRF assay in CHO cells, antagonism versus 0.3 uM Cortistatin-14
Format: cell-based
Conditions: versus 0.3 uM Cortistatin-14 agonist, CHO cells expressing human MRGPRX2, read-out: MRGPRX2 Antagonist Activity
Procedure: CHO cells stably transfected to express human MRGPRX2 were maintained in an incubator at 37° C. with 5% CO2 and grown in F12 (HAM) media with 10% fetal bovine serum (FBS), 1% Glutamax, 1% penicillin/streptomycin, 800 μg/mL Geneticin (G418), and 300 μg/mL Hygromycin B.
Cells were plated in a 384-well assay plate at 20,000 cells per well in 12 μL of Opti-MEM and kept in an incubator overnight. On the day of the assay, compounds solubilized at 10 mM in DMSO were added as a 10-point curve (30 uM final top concentration with 1:3 serial dilutions) using a Tecan D300E digital dispenser. Agonists were diluted in assay buffer (final concentrations of 5.7 mM Tris-HCl, 43 mM NaCl, 50 mM LiCl, pH=8) and 2 μL of the agonist Cortistatin-14 (CPC Scientific, catalog CORT-002) are added to each well. Final concentrations of agonists were 0.3 μM Cortistatin. Final concentrations of DMSO were kept consistent across the plate. Plates were incubated in the dark for 1 h at 37° C. and then for 1 h at room temperature. IP-1 standards and HTRF detection reagents were added according to the IP-One—Gq Kit purchased from Cisbio (part number 62IPAPEJ) and incubated in the dark for 1 h at room temperature. The plate was read on a Molecular Devices SpectraMax iD5 plate reader. The HTRF ratio was calculated from the raw data and graphed using GraphPad Prism to calculate an IC50 value for each compound.
The activity ranges are denoted as follows: “+++++” denotes antagonist activity <100 nM; “++++” denotes antagonist activity between 100 and 500 nM; “+++” denotes activity between 501 and 1000 nM; “++” denotes activity between 1001 and 2500 nM; and “+” denotes activity >2500 nM.

Structure (SMILES) | IC50 [µM]
Cc1cc(C(C)c2c(F)ccc3c2NC(NCc2cccc(F)c2)=NS3(=O)=O)ccn1 (centres unmarked) [Compound 22-21, 6-fluoro-3-((3-fluorobenzyl)amino)-5-(1-(2-methylpyridin-4-yl)ethyl)-4H-benzo[e][1,2,4]thiadiazine 1,1-dioxide] | < 0.1
O=S1(=O)N=C(NCc2ncccc2F)Nc2c1ccc(F)c2Oc1cccc(F)c1 [Compound 2-8, 6-fluoro-5-(3-fluorophenoxy)-3-(((3-fluoropyridin-2-yl)methyl)amino)-4H-benzo[e][1,2,4]thiadiazine 1,1-dioxide] | 0.1 to 0.5
O=S1(=O)N=C(NCc2ccc(F)cc2)Nc2c1cc(F)c(F)c2Cc1ccccc1Cl [Compound 4-13, 5-(2-chlorobenzyl)-6,7-difluoro-3-((4-fluorobenzyl)amino)-4H-benzo[e][1,2,4]thiadiazine 1,1-dioxide] | 0.501 to 1
N#Cc1cccc(Cc2cccc3c2NC(NCc2ccccc2F)=NS3(=O)=O)c1 [Compound 6-12, 3-((3-((2-fluorobenzyl)amino)-1,1-dioxido-4H-benzo[e][1,2,4]thiadiazin-5-yl)methyl)benzonitrile] | < 0.1
O=S1(=O)N=C(NCc2ncccc2F)Nc2c(Oc3ccccc3Cl)c(Cl)cc(F)c21 [Compound 1-42, 6-chloro-5-(2-chlorophenoxy)-8-fluoro-3-(((3-fluoropyridin-2-yl)methyl)amino)-4H-benzo[e][1,2,4]thiadiazine 1,1-dioxide] | 0.1 to 0.5
O=S1(=O)N=C(NCc2cc(F)ccc2F)Nc2c1ccc(F)c2Oc1ccccc1Cl [Compound 1-23, 5-(2-chlorophenoxy)-3-((2,5-difluorobenzyl)amino)-6-fluoro-4H-benzo[e][1,2,4]thiadiazine 1,1-dioxide] | < 0.1
O=S1(=O)N=C(NCc2ccc(Cl)c(Cl)c2)Nc2c(Cc3ccccc3Cl)cccc21 [Compound 12-12, 5-(2-chlorobenzyl)-3-((3,4-dichlorobenzyl)amino)-4H-benzo[e][1,2,4]thiadiazine 1,1-dioxide] | < 0.1
CC(c1c(F)ccc2c1NC(NCc1cccc(F)c1)=NS2(=O)=O)c1c[nH]c2ccccc12 (centres unmarked) [Compound 22-18, 5-(1-(1H-indol-3-yl)ethyl)-6-fluoro-3-((3-fluorobenzyl)amino)-4H-benzo[e][1,2,4]thiadiazine 1,1-dioxide] | 0.1 to 0.5
Cc1ccc(NC2=NS(=O)(=O)c3ccc(F)c(Oc4ccccc4Cl)c3N2)cc1 [Compound 1-13, 5-(2-chlorophenoxy)-6-fluoro-3-(p-tolylamino)-4H-benzo[e][1,2,4]thiadiazine 1,1-dioxide] | > 2.5
O=S1(=O)N=C(NCc2ncccc2F)Nc2c1ccc(F)c2Oc1cccc(Cl)c1 [Compound 2-10, 5-(3-chlorophenoxy)-6-fluoro-3-(((3-fluoropyridin-2-yl)methyl)amino)-4H-benzo[e][1,2,4]thiadiazine 1,1-dioxide] | 0.1 to 0.5
Cc1cccc(CNC2=NS(=O)(=O)c3cccc(Cc4ccccc4Cl)c3N2)c1 [Compound 12-20, 5-(2-chlorobenzyl)-3-((3-methylbenzyl)amino)-4H-benzo[e][1,2,4]thiadiazine 1,1-dioxide] | < 0.1
O=S1(=O)N=C(NCc2ccccc2F)Nc2c(Cc3ccc(Cl)cc3)cccc21 [Compound 6-13, 5-(4-chlorobenzyl)-3-((2-fluorobenzyl)amino)-4H-benzo[e][1,2,4]thiadiazine 1,1-dioxide] | 0.1 to 0.5
C[C@H](c1ccccc1F)c1c(F)ccc2c1NC(NCc1ccc3c(cnn3C)c1)=NS2(=O)=O [Compound 24-3, (R)-6-fluoro-5-(1-(2-fluorophenyl)ethyl)-3-(((1-methyl-1H-indazol-5-yl)methyl)amino)-4H-benzo[e][1,2,4]thiadiazine 1,1-dioxide] | < 0.1
O=S1(=O)N=C(NCc2cccc(F)n2)Nc2c1ccc(Cl)c2Oc1ccccc1Cl [Compound 1-46, 6-chloro-5-(2-chlorophenoxy)-3-(((6-fluoropyridin-2-yl)methyl)amino)-4H-benzo[e][1,2,4]thiadiazine 1,1-dioxide] | < 0.1
